Assay results: PubChem BioAssay (NCI)
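Assay format: 96-well plates, 48-hour exposure. Abbreviation: GI50, concentration required for 50% inhibition of growth. TGI: concentration producing complete growth inhibition.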

Columns and labels:
Experiment in all cases: NCI anticancer screen, dose series, 48 h
OVCAR-4 ovarian = tested on: OVCAR-4 ovarian
UACC-62 melanoma = tested on: UACC-62 melanoma
HT29 colon = tested on: HT29 colon
SK-MEL-28 melanoma = tested on: SK-MEL-28 melanoma
HS 578T breast = tested on: HS 578T breast
IGROV1 ovarian = tested on: IGROV1 ovarian
NCI/ADR-RES ovarian = tested on: NCI/ADR-RES ovarian
SNB-19 CNS = tested on: SNB-19 CNS
UO-31 renal = tested on: UO-31 renal
UACC-257 melanoma = tested on: UACC-257 melanoma

SMILES | GI50 (OVCAR-4 ovarian) [µM] | TGI (OVCAR-4 ovarian) [µM] | GI50 (UACC-62 melanoma) [µM] | TGI (UACC-62 melanoma) [µM] | GI50 (HT29 colon) [µM] | TGI (HT29 colon) [µM] | GI50 (SK-MEL-28 melanoma) [µM] | TGI (SK-MEL-28 melanoma) [µM] | GI50 (HS 578T breast) [µM] | TGI (HS 578T breast) [µM] | GI50 (IGROV1 ovarian) [µM] | TGI (IGROV1 ovarian) [µM] | GI50 (NCI/ADR-RES ovarian) [µM] | TGI (NCI/ADR-RES ovarian) [µM] | GI50 (SNB-19 CNS) [µM] | TGI (SNB-19 CNS) [µM] | TGI (UO-31 renal) [µM] | TGI (UACC-257 melanoma) [µM] | GI50 (UO-31 renal) [µM] | GI50 (UACC-257 melanoma) [µM]
COc1cnc2c(c1)C(=O)c1c-2n(CCCN2CCOCC2)c(=O)c2cc(F)ccc12 | 0.352 | > 100 | 0.235 | 0.926 | 0.147 | 0.638 | 1.2 | > 100 | 1.5 | 23.3 | 0.354 | > 100 | 0.299 | > 100 | 0.264 | 7 | – | – | – | –
COC(=O)CC[N+]1=CCC(c2ccccc2)(c2ccccc2)O1 | – | > 100 | – | > 100 | – | > 100 | – | > 100 | – | > 100 | – | > 100 | – | – | – | > 100 | > 100 | > 100 | – | –
Cc1cc(NS(=O)(=O)c2ccc(Nc3c4ccccc4nc4c(C(=O)N5CCN(CCOS(C)(=O)=O)CC5)cccc34)cc2)no1 | – | > 100 | – | > 100 | – | > 100 | – | > 100 | – | – | – | > 100 | – | – | – | > 100 | > 100 | > 100 | – | –
CNS(=O)(=O)NNS(=O)(=O)c1ccccc1 | – | – | – | > 100 | – | > 100 | – | > 100 | – | – | – | > 100 | – | – | – | > 100 | > 100 | > 100 | – | –
O=C(Nc1nc2ccc([N+](=O)[O-])cc2s1)C(=O)C(C1OC(=O)c2ccccc21)[N+](=O)[O-] (centres undefined) | – | > 100 | – | > 100 | – | > 100 | – | > 100 | – | – | – | > 100 | – | – | – | > 100 | 94.4 | > 100 | – | –
Cc1ccc(S(=O)(=O)OC[C@@H]2CO2)cc1 | – | > 100 | – | – | – | > 100 | – | > 100 | – | – | – | > 100 | – | – | – | > 100 | > 100 | > 100 | – | –
COc1ccccc1N1C(=O)C2c3[nH]c4ccccc4c3C3CCC(C(C)(C)C)CC3C2C1=O (centres undefined) | – | > 100 | – | > 100 | – | > 100 | – | > 100 | – | – | – | > 100 | – | – | – | > 100 | > 100 | > 100 | – | –
COc1cc2ccnc([C@@H](OC(=O)c3ccccc3)c3ccc(OC)c(OC)c3OC)c2cc1OC | – | > 100 | – | > 100 | – | > 100 | – | > 100 | – | – | – | > 100 | – | – | – | > 100 | 76.3 | > 100 | – | –
CCn1c(C)nn2c(=O)c3ccccc3nc2c1=O | – | > 100 | – | > 100 | – | > 100 | – | > 100 | – | – | – | > 100 | – | – | – | – | – | > 100 | – | –
CC1(C)C(=O)/C=C\C(=O)C(C)(C)C2=CC=C(O2)C(C)(C)C(=O)/C=C\C(=O)C(C)(C)C2=CC=C1O2 | – | > 100 | – | – | – | > 100 | – | > 100 | – | – | – | > 100 | – | – | – | > 100 | – | > 100 | – | –
CC(=O)[CH-]C(=O)c1ccccc1.CC(=O)[CH-]C(=O)c1ccccc1.CN(C)c1ccc([O-])cc1.CN(C)c1ccc([O-])cc1.Cl.[Ti+4] | – | – | > 31.6 | > 31.6 | 18.1 | > 31.6 | > 31.6 | > 31.6 | – | – | 46.8 | > 100 | – | – | 22 | > 31.6 | > 31.6 | > 31.6 | 17.9 | > 31.6
C=CCO[C@H]1CO[C@H]2[C@@H]1OC[C@@H]2Oc1ccc(Nc2ccnc(Nc3ccc(O[C@H]4CO[C@H]5[C@@H]4OC[C@@H]5OCC=C)c(Cl)c3)n2)cc1Cl | 1.57 | 2.93 | 1.81 | 3.32 | 2.08 | 4.99 | 1.73 | 3.16 | – | – | 1.79 | 3.54 | 1.78 | 3.85 | 2 | 3.73 | 2.93 | 3.69 | 1.58 | 1.83
Cc1c(C(=O)C/C(=N/NC(=O)c2ccccc2O)C(=O)Nc2ccccc2C(C)C)[n+](=O)c2ccccc2n1[O-] | – | > 100 | – | 77.7 | – | > 100 | – | > 100 | – | – | – | > 100 | – | – | – | > 100 | – | > 100 | – | –
Cc1nc2c(ccc3ncccc32)[nH]1 | – | > 100 | – | > 100 | – | > 100 | – | > 100 | – | – | – | > 100 | – | – | – | > 100 | > 100 | > 100 | – | –
CC1CCc2nc[nH]c(=O)c21 (centres undefined) | > 100 | > 100 | > 100 | > 100 | > 100 | > 100 | > 100 | > 100 | > 100 | > 100 | > 100 | > 100 | > 100 | > 100 | > 100 | > 100 | > 100 | – | > 100 | –
COC1/C=C/OC2(C)Oc3c(C)c(O)c4c(O)c(c(/C=N/Nc5ccc([N+](=O)[O-])cc5[N+](=O)[O-])c(O)c4c3C2=O)NC(=O)C(C)=C/C=C/C(C)C(O)C(C)C(O)C(C)C(OC(C)=O)C1C (centres undefined) | 2.9 | > 50 | 1.37 | 5.08 | – | – | 1.45 | 5.23 | 0.97 | 3.59 | 1.87 | > 50 | 22.2 | > 50 | 3.92 | 18.1 | 23.6 | 5.58 | 8.71 | 1.48
CCOC(=O)C(C)(C)Oc1ccc2c(-c3ccccc3)cc(=O)oc2c1 | – | > 100 | – | 38.6 | – | – | – | > 100 | – | – | – | > 100 | – | – | – | > 100 | 76 | 75.5 | – | –
O=C(O)CCC(NC(=O)c1ccc(Nc2nc3ccccc3nc2-c2cccs2)cc1)C(=O)O (centres undefined) | – | > 100 | – | > 100 | – | > 100 | – | > 100 | – | – | – | > 100 | – | – | – | > 100 | > 100 | > 100 | – | –
FC(F)(F)c1cccc(Nc2nc(-c3ccccc3)nc3ncccc23)c1 | 8.05 | 45.6 | 5.84 | 26.2 | 3.15 | 12 | 7.93 | 74.4 | 3.49 | 18.1 | 4.25 | 16.8 | 4.07 | 23.5 | 7.68 | 37.3 | 21.8 | – | 4.86 | –
